# How the values were obtained:
# [1] = tested on: L6 myotubes; experiment: Protein degradation assay ([3H]Tyr release) in dexamethasone-treated myotubes; format: cell-based, rat; conditions: pre-incubation HMB 25 µM or Leu 10 mM 48 hours, then 48 hours with dexamethasone 5 µM
# Protocol: (§1) Cell culture. The L6.C11 rat skeletal muscle myoblast line (ECACC No. 92102119) was grown in DMEM containing 10% (v/v) FCS, 2 mmol/l Glutamine plus 100 units/ml penicillin and 0.1 mg/ml streptomycin (Sigma) in an atmosphere of air/CO2 (95:5) and maintained at subconfluent densities in growth media. Cells were differentiated to myotubes by exchanging the growth medium for a differentiation medium consisting of DMEM containing 2% (v/v) FCS for 3-4 days (>50% fusion into multinucleated myotubes).
# (§2) Protein synthesis and degradation assays. […] At the completion of the labeling period, cultures were rinsed three times with PBS, cells were lysed with sodium desoxycholate 0.1%/NaOH 0.1 M and protein was precipitated with cold 10% TCA in PBS overnight, rinsed once with cold 10% TCA, solubilized in NaOH 0.5 M, neutralized with HCl 0.5 M and mixed with scintillation fluid, and radioactivity was determined using a scintillation counter. […] Degradation rates were determined according to Hong & Forsberg, 1995.
# To study the effects of HMB and Leu on protein degradation induced by dexamethasone, L6 differentiated myotubes were first differentiated to myotubes for 3 days in 2% FBS, and then the medium was changed to 10% FBS for the remainder of the experiment. […] After the incubation, protein degradation for each condition was calculated. […] Results are expressed as mean ± SEM of six independent experiments.
# [2] = tested on: L6 myotubes; experiment: Protein synthesis assay ([3H]Tyr incorporation) in dexamethasone-treated myotubes; format: cell-based, rat; conditions: HMB 25 µM or Leu 10 mM, 2 hours plus 1 hour labeling, dexamethasone 5 µM
# Protocol: as §1, §2
# Particularly, L6 myotubes were treated with HMB (25 µM) or Leu (10 mM) for 2 hours in the presence or absence of dexamethasone (5 µM). […] After the incubation, protein synthesis for each condition was calculated. […] Results are expressed as means ± SEM of six independent experiments.
# [3] = tested on: PKB/Akt; experiment: Western blot of phospho-PKB/Akt vs total PKB/Akt in L6 myotubes; format: cell-based, rat; conditions: basal, without dexamethasone; HMB 25 µM or Leu 10 mM, 30 minutes
# Protocol: (§3) Protein phosphorylation analysis. L6 myotubes were incubated with HMB or Leu in the absence or presence of dexamethasone for 30 minutes. After treatment, plates were flash frozen in liquid nitrogen and were scraped with 50 µl/60 mm/plate of cold 30 mmol/L Tris-HCl pH 7.4, 25 mmol/L NaCl, 1% (v/v) Triton X-100, 0.1% SDS, 10 mmol/L sodium fluoride, 10 mmol/L sodium pyrophosphate, 1 mmol/L sodium orthovanadate, 1 mmol/L EGTA, 20 nmol/L okadaic acid, 10 µg/ml aprotinin, 10 µg/ml leupeptin, 10 µg/ml pepstatin. After 10 minutes on ice, extracts were centrifuged at 13000 g for 10 minutes at 4°C. Protein concentration from the supernatants was measured using the Bio-Rad Protein Assay. […]
# (§4) L6 Myoblasts were differentiated to myotubes for 3 days in 2% FBS. […] Cells were lysed in phosphorylation buffer and analyzed by Western blot using an anti-phospho PKB/Akt antibody (FIG. 3A), anti-phospho mTOR antibody (FIG. 3B), or anti-atrogin-1 antibody (FIG. 3C). […] The lower panels of each of FIGS. 3A-3C show densitometric quantification of: phospho-PKB/total PKB protein abundance (FIG. 3A); phospho-mTOR/total mTOR protein abundance (FIG. 3B); or atrogin-1 protein abundance using Histone H3 (FIG. 3C) as a reference control. Results are expressed as means ± SEM of four independent experiments.
# [4] = tested on: mTOR; experiment: Western blot of phospho-mTOR vs total mTOR in L6 myotubes; format: cell-based, rat; conditions: basal, without dexamethasone; HMB 25 µM or Leu 10 mM, 30 minutes
# Protocol: as §3, §4
# [5] = tested on: FOXO; experiment: FOXO-responsive luciferase reporter assay in L6 cells; format: cell-based, rat
# From the text: (§5) Reporter gene constructs. For the analysis of rat Ubiquitin (UbC) promoter, a 417 bp fragment of 417 bp flanking the transcription start point was amplified from rat genomic DNA. This fragment was similar to those that have been characterized for the human and rat promoters. The sequences of all constructs were verified by automated DNA sequencing. The Cignal FOXO Reporter (luc) kit, CCS-1022L, was provided by SABiosciences and contains a mixture of inducible FOXO-responsive firefly luciferase construct and constitutively expressing Renilla luciferase construct (40:1).
# (§6) DNA transfection assays. For transfection experiments, cells were used at 80-90% confluence. […] Luciferase activity was determined using standard reagents (Dual Luciferase method, Promega) in a luminometer (Sirius L, Berthold Technologies, Bad Wildbad, Germany) and results were standardized for Renilla luciferase activity. […] To allow comparison of the expression patterns, the data were expressed as relative changes in luciferase activity and were normalized to a value of 100%.
# To address whether the down-regulation of atrogin-1 in HMB- pretreated cells was accompanied by an underlying regulation of the FOXO transcription factor, the total FOXO expression (monitored by using FOXO-luciferase reporter gene activity) and the amount FOXO3a transcription factor in the nucleus were analyzed. […]
# [6] = tested on: FOXO3a; experiment: Western blot of FOXO3a in nuclear extracts of L6 cells (Histone H3 reference); format: cell-based, rat
# Protocol: Preparation of nuclear extracts. Nuclear extracts from L6 cells were prepared following Bhavsar et al. Protein concentration was measured in nuclear extracts using the Bio-Rad Protein Assay kit. Aliquots of the extracts (40 µg) were resolved by 10% SDS-PAGE and analyzed by immunoblotting using a 1:1000 dilution of polyclonal anti-FOXO3a or anti-Histone H3 antibodies. The antigen-antibody complexes were detected with HRP-conjugated secondary antibodies using a chemiluminescence detection system (Bio-Rad).
# To address whether the down-regulation of atrogin-1 in HMB- pretreated cells was accompanied by an underlying regulation of the FOXO transcription factor, the total FOXO expression (monitored by using FOXO-luciferase reporter gene activity) and the amount FOXO3a transcription factor in the nucleus were analyzed. L6 Myoblasts were differentiated to myotubes for 3 days in 2% FBS. After the differentiation process, medium was changed to 10% FBS for the remainder of the experiment. Myotubes were incubated in the presence or absence of HMB (25 µM) or Leu (10 mM) for 48 hours. […]
# Further, L6 untransfected cells were treated as above, nuclear extracts were obtained as described in the material and methods section and analyzed by Western blot using an anti-FOXO3 antibody. […] Results are expressed as means ± SEM of four independent experiments.
# [7] = tested on: ERK1/2; experiment: Western blot of phospho-ERK1/2 vs total ERK1/2 in L6 myotubes; format: cell-based, rat; conditions: HMB 25 µM or Leu 10 mM, 30 minutes
# Protocol: Protein phosphorylation analysis. L6 myotubes were incubated with HMB or Leu in the absence or presence of dexamethasone for 30 minutes. After treatment, plates were flash frozen in liquid nitrogen and were scraped with 50 µl/60 mm/plate of cold 30 mmol/L Tris-HCl pH 7.4, 25 mmol/L NaCl, 1% (v/v) Triton X-100, 0.1% SDS, 10 mmol/L sodium fluoride, 10 mmol/L sodium pyrophosphate, 1 mmol/L sodium orthovanadate, 1 mmol/L EGTA, 20 nmol/L okadaic acid, 10 µg/ml aprotinin, 10 µg/ml leupeptin, 10 µg/ml pepstatin. After 10 minutes on ice, extracts were centrifuged at 13000 g for 10 minutes at 4°C. Protein concentration from the supernatants was measured using the Bio-Rad Protein Assay. Proteins (25-40 µg) were separated by SDS-PAGE and immunoblotted with selected antibodies; the immunoblots were developed by chemiluminescence detection.
# Taking into account that phosphorylation of FOXO3a by ERK is a required step for FOXO3a ubiquitination and subsequent proteosomal degradation of this transcription factor in the cytoplasm, the effect of HMB and Leu on ERK activation was also analyzed. Specifically, L6 Myoblasts were differentiated to myotubes for 3 days in 2% FBS. […] Cells were lysed in phosphorylation buffer and analyzed by Western blot using an anti-phospho ERK1/2 antibody. […] Results are expressed as means ± SEM of four independent experiments.
# [8] = tested on: UbC promoter; experiment: pGL3-UbC luciferase reporter assay in L6 myotubes; format: cell-based, rat; conditions: pre-treatment HMB 25 µM or Leu 10 mM 48 hours, then dexamethasone 5 µM 48 hours
# From the text: as §5, §6
# Additionally, the effect of HMB and Leu on UbC promoter implicated in protein degradation induced by dexamethasone was analyzed. […] Results are expressed as means ± SEM of six independent experiments.
# [9] = tested on: atrogin-1; experiment: cells; format: cell-based; conditions: Rattus norvegicus, L6, 48 h, read-out: increase in amount of atrogin-1
# Protocol: Atrogin-1 analysis. L6 myotubes were pre-incubated with HMB 25 µM or Leu 10 mM for 48 hours. Then, dexamethasone 5 µM was added for another 48 hours. After treatment, cells were lysed with RIPA buffer (Sigma) supplemented with inhibitor protease cocktail (Sigma). Lysates were sonicated and protein concentration was measured using the Bio-Rad Protein Assay. Proteins (40 µg) were separated by SDS-PAGE and immunoblotted with anti-atrogin antibody.
# L6 Myoblasts were differentiated to myotubes for 3 days in 2% FBS. Cells were deprived of FBS for 12 hours and incubated with HMB (25 µM) or Leu (10 mM) and insulin (100 nmol/l) in the absence or presence of dexamethasone (5 µM) for 30 minutes. Cells were lysed in phosphorylation buffer and analyzed by Western blot using an anti-phospho PKB/Akt antibody (FIG. 3A), anti-phospho mTOR antibody (FIG. 3B), or anti-atrogin-1 antibody (FIG. 3C). As a loading control, results were normalized using an anti-total PKB/Akt antibody, anti-total mTOR antibody, or an anti-Histone H3 antibody (see FIGS. 3A-3C, respectively). […] The lower panels of each of FIGS. 3A-3C show densitometric quantification of: phospho-PKB/total PKB protein abundance (FIG. 3A); phospho-mTOR/total mTOR protein abundance (FIG. 3B); or atrogin-1 protein abundance using Histone H3 (FIG. 3C) as a reference control. Results are expressed as means ± SEM of four independent experiments.
# [10] = basal conditions, absence of dexamethasone, HMB 25 µM or Leu 10 mM
# [11] = pre-treatment HMB 25 µM or Leu 10 mM 48 hours, then dexamethasone 5 µM 12 hours
smiles,measurement,setting,value
"CC(C)(O)CC(=O)O [HMB, beta-hydroxy-beta-methylbutyrate]",inhibition at 25 µM,"[1]; Rattus norvegicus, L6, read-out: decrease of proteolysis induced by dexamethasone",~60%
"CC(C)C[C@H](N)C(=O)O [Leu, Leucine]",decrease of proteolysis induced by dexamethasone,[1],did not significantly affect glucocorticoid-induced protein degradation
same,prevention of the decrease in protein synthesis induced by dexamethasone,[2],but not Leu
same,phosphorylative state of Akt,[3],did not have influence on the phosporylative state of Akt and mTOR
same,phosphorylative state of mTOR,[4],did not have influence on the phosporylative state of Akt and mTOR
same,FOXO basal activity,[5]; [10],neither HMB nor Leu were able to significantly change FOXO basal activity or amount
same,FOXO overexpression induced by dexamethasone (reporter activity),[5]; [11],did not have any effect on the dexamethasone-increased FOXO expression and amount
same,FOXO basal amount (nuclear FOXO3a),[6]; [10],neither HMB nor Leu were able to significantly change FOXO basal activity or amount
same,FOXO3a nuclear translocation induced by dexamethasone,[6]; [11],did not have any effect on the dexamethasone-increased FOXO expression and amount
same,ERK activation (phospho-ERK/total ERK),[7]; atrophic conditions (dexamethasone 5 µM),induced an activation of ERK kinase either at basal or at atrophic conditions
same,ERK activation (phospho-ERK/total ERK),[7]; basal conditions,induced an activation of ERK kinase either at basal or at atrophic conditions
same,counteraction of the effects of dexamethasone on Ub-C promoter activity,[8],only HMB was able to significantly counteract the effects of dexamethasone on Ub-C promoter activity
C[C@@H]1C[C@H]2[C@@H]3CCC4=CC(=O)C=C[C@]4(C)[C@@]3(F)[C@@H](O)C[C@]2(C)[C@@]1(O)C(=O)CO [dexamethasone],fold induction at 5 µM,[9],> 4

# Source: patent publication EP2647374A1, “Nutritional compositions including beta-hydroxy-beta-methylbutyrate for regulating transcription factors” (Abbott Laboratories, Inc., priority 2012, dated 2013)
